Data taken from US10875875B2, “Propionic acid derivatives and methods of use thereof” (Aviara Pharmaceuticals, Inc., priority 2017, dated 2020).

What follows are molecules tested against α4β1 (Homo sapiens, UniProt P05556+P13612) (assay: α4β1 integrin inhibition, IC50). Conditions: read-out: α4β1 IC50.
Type: binding

Chain of α4β1 (P13612 34-1032): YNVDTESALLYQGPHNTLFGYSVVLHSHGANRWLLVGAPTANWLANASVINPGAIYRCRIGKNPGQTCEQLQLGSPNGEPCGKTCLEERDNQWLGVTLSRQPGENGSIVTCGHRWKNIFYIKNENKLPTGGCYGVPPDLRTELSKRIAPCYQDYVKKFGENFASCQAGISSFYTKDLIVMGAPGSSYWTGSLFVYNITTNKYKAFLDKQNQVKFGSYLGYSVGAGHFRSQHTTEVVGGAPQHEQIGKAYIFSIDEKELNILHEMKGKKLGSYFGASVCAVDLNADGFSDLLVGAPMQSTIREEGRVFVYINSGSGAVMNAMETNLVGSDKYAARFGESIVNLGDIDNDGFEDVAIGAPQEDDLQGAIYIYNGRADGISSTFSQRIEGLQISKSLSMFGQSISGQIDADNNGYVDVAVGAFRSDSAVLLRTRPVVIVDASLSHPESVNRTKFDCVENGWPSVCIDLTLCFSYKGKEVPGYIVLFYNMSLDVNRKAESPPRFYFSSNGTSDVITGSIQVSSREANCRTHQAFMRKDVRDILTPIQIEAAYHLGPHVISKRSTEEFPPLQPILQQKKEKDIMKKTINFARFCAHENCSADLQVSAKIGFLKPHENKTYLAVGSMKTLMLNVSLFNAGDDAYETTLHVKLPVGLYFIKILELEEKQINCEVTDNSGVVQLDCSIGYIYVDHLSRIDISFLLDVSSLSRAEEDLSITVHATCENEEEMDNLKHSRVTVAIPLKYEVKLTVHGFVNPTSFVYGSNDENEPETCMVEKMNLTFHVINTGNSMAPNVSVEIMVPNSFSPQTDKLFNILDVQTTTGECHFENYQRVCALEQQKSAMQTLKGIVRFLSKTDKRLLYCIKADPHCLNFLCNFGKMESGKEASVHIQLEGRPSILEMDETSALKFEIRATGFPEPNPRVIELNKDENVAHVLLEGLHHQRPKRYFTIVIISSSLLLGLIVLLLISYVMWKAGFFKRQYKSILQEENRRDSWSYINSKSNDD
Chain of α4β1 (P05556 21-798): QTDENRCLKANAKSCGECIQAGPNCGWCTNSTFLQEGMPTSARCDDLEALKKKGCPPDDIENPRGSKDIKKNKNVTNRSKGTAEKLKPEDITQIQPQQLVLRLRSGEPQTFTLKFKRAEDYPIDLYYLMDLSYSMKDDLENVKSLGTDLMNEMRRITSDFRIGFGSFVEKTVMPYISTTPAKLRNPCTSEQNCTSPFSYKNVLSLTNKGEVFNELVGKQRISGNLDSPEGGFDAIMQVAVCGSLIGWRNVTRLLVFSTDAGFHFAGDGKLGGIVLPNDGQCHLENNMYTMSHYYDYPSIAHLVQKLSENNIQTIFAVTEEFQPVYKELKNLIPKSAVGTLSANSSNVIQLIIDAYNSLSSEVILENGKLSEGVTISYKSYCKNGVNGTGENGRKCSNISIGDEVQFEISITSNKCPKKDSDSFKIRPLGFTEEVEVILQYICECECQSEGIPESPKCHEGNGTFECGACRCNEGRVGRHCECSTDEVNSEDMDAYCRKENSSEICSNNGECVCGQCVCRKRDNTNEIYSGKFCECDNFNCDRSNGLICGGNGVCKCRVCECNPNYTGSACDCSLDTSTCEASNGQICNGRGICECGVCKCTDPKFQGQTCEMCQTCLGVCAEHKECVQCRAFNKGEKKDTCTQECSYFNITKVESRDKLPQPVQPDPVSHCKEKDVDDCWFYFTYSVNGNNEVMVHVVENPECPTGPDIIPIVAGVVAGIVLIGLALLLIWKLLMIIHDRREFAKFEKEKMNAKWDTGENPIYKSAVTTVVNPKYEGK

IC50, < 20 nM:
Cn1ccc(O)c(NC(=O)N[C@@H](CC(=O)O)c2cc(-c3ccccc3)ccc2F)c1=O [1-570, sodium (S)-3-(4-fluorobiphenyl-3-yl)-3-(3-(1-methyl-4-oxido-2-oxo-1,2-dihydropyridin-3-yl)ureido)propanoate]
Cn1ccc(O)c(NC(=O)N[C@@H](CC(=O)O)c2cccc(-c3ccccc3)n2)c1=O [1-571, sodium (S)-3-(3-(1-methyl-4-oxido-2-oxo-1,2-dihydropyridin-3-yl)ureido)-3-(6-phenylpyridin-2-yl)propanoate]
Cc1cc(-c2c(C)cccc2C)cc([C@H](CC(=O)O)NC(=O)Nc2c(O)ccn(C)c2=O)c1 [1-573, sodium (S)-3-(3-(1-methyl-4-oxido-2-oxo-1,2-dihydropyridin-3-yl)ureido)-3-(2′,5,6′-trimethylbiphenyl-3-yl)propanoate]
Cc1cc(-c2ccc(F)cc2F)cc([C@H](CC(=O)O)NC(=O)Nc2c(O)ccn(C)c2=O)c1 [1-574, sodium (S)-3-(2′,4′-difluoro-5-methylbiphenyl-3-yl)-3-(3-(1-methyl-4-oxido-2-oxo-1,2-dihydropyridin-3-yl)ureido)propanoate]
Cc1cc(-c2ccc(F)cc2F)cc([C@H](CC(=O)O)NC(=O)Nc2c(O)cc(C)n(C)c2=O)c1 [1-575, sodium (S)-3-(2′,4′-difluoro-5-methylbiphenyl-3-yl)-3-(3-(1,6-dimethyl-4-oxido-2-oxo-1,2-dihydropyridin-3-yl)ureido)propanoate]
Cc1ccc([C@H](CC(=O)O)NC(=O)Nc2c(O)ccn(C)c2=O)cc1-c1cccc(OC(F)(F)F)c1 [1-576, sodium (S)-3-(6-methyl-3′-(trifluoromethoxy)biphenyl-3-yl)-3-(3-(1-methyl-4-oxido-2-oxo-1,2-dihydropyridin-3-yl)ureido)propanoate]
Cc1ccc([C@H](CC(=O)O)NC(=O)Nc2c(O)cc(C)n(C)c2=O)cc1-c1cccc(OC(F)(F)F)c1 [1-577, sodium (S)-3-(3-(1,6-dimethyl-4-oxido-2-oxo-1,2-dihydropyridin-3-yl)ureido)-3-(6-methyl-3′-(trifluoromethoxy)biphenyl-3-yl)propanoate]
Cc1cccc(C)c1-c1cc([C@H](CC(=O)O)NC(=O)Nc2c(O)cc(C)n(C)c2=O)ccc1F [1-578, sodium (S)-3-(3-(1,6-dimethyl-4-oxido-2-oxo-1,2-dihydropyridin-3-yl)ureido)-3-(6-fluoro-2′,6′-dimethylbiphenyl-3-yl)propanoate]
COc1cc(-c2ccc(F)cc2F)cc([C@H](CC(=O)O)NC(=O)Nc2c(O)cc(C)n(C)c2=O)c1 [1-581, sodium (S)-3-(2′,4′-difluoro-5-methoxybiphenyl-3-yl)-3-(3-(1,6-dimethyl-4-oxido-2-oxo-1,2-dihydropyridin-3-yl)ureido)propanoate]
Cc1cscc1-c1ccc([C@H](CC(=O)O)NC(=O)Nc2c(O)ccn(C)c2=O)s1 [1-584, sodium (S)-3-(4′-methyl-2,3′-bithiophen-5-yl)-3-(3-(1-methyl-4-oxido-2-oxo-1,2-di hydropyridin-3-yl)ureido)propanoate]
Cc1cscc1-c1ccc([C@H](CC(=O)O)NC(=O)Nc2c(O)cc(C)n(C)c2=O)s1 [1-585, sodium (S)-3-(3-(1,6-dimethyl-4-oxido-2-oxo-1,2-dihydropyridin-3-yl)ureido)-3-(4′-methyl-2,3′-bithiophen-5-yl)propanoate]
COc1cccc(-c2cc(C)cc([C@H](CC(=O)O)NC(=O)Nc3c(O)cc(C)n(C)c3=O)c2)c1 [1-586, sodium (S)-3-(3-(1,6-dimethyl-4-oxido-2-oxo-1,2-dihydropyridin-3-yl)ureido)-3-(3′-methoxy-5-methylbiphenyl-3-yl)propanoate]
Cc1cccc(C)c1-c1ccc([C@H](CC(=O)O)NC(=O)Nc2c(O)ccn(C)c2=O)s1 [1-587, sodium (S)-3-(5-(2,6-dimethylphenyl)thiophen-2-yl)-3-(3-(1-methyl-4-oxido-2-oxo-1,2-dihydropyridin-3-yl)ureido)propanoate]
Cc1cccc(C)c1-c1ccc([C@H](CC(=O)O)NC(=O)Nc2c(O)cc(C)n(C)c2=O)s1 [1-588, sodium (S)-3-(3-(1,6-dimethyl-4-oxido-2-oxo-1,2-dihydropyridin-3-yl)ureido)-3-(5-(2,6-dimethylphenyl)thiophen-2-yl)propanoate]
Cc1cccc(C)c1-c1ccc(F)c([C@H](CC(=O)O)NC(=O)Nc2c(O)cc(C)n(C)c2=O)c1 [1-589, sodium (S)-3-(3-(1,6-dimethyl-4-oxido-2-oxo-1,2-dihydropyridin-3-yl)ureido)-3-(4-fluoro-2′,6′-dimethylbiphenyl-3-yl)propanoate]
Cn1ccc(O)c(NC(=O)N[C@@H](CC(=O)O)c2cc(-c3ccc(F)cc3F)ccc2F)c1=O [1-591, sodium (S)-3-(3-(1-methyl-4-oxido-2-oxo-1,2-dihydropyridin-3-yl)ureido)-3-(2′,4,4′-trifluorobiphenyl-3-yl)propanoate]
Cc1cc(O)c(NC(=O)N[C@@H](CC(=O)O)c2cc(-c3ccc(F)cc3F)ccc2F)c(=O)n1C [1-592, sodium (S)-3-(3-(1,6-dimethyl-4-oxido-2-oxo-1,2-dihydropyridin-3-yl)ureido)-3-(2′,4,4′-trifluorobiphenyl-3-yl)propanoate]
COc1cccc(-c2ccc(F)c([C@H](CC(=O)O)NC(=O)Nc3c(O)ccn(C)c3=O)c2)c1 [1-593, sodium (S)-3-(4-fluoro-3′-methoxybiphenyl-3-yl)-3-(3-(1-methyl-4-oxido-2-oxo-1,2-dihydropyridin-3-yl)ureido)propanoate]
Cn1ccc(O)c(NC(=O)N[C@@H](CC(=O)O)c2cc(-c3cccc(OC(F)(F)F)c3)ccc2F)c1=O [1-594, sodium (S)-3-(4-fluoro-3′-(trifluoromethoxy)biphenyl-3-yl)-3-(3-(1-methyl-4-oxido-2-oxo-1,2-dihydropyridin-3-yl)ureido)propanoate]
Cc1cc(O)c(NC(=O)N[C@@H](CC(=O)O)c2cc(-c3cccc(OC(F)(F)F)c3)ccc2F)c(=O)n1C [1-595, sodium (S)-3-(3-(1,6-dimethyl-4-oxido-2-oxo-1,2-dihydropyridin-3-yl)ureido)-3-(4-fluoro-3′-(trifluoromethoxy)biphenyl-3-yl)propanoate]
COc1ccc(-c2ccccc2)cc1[C@H](CC(=O)O)NC(=O)Nc1c(O)ccn(C)c1=O [1-596, sodium (S)-3-(4-methoxybiphenyl-3-yl)-3-(3-(1-methyl-4-oxido-2-oxo-1,2-dihydropyridin-3-yl)ureido)propanoate]
Cc1cc(-c2c(C)cccc2C)cc([C@H](CC(=O)O)NC(=O)Nc2c(O)cc(C)n(C)c2=O)c1 [1-597, sodium (S)-3-(3-(1,6-dimethyl-4-oxido-2-oxo-1,2-dihydropyridin-3-yl)ureido)-3-(2′,5,6′-trimethylbiphenyl-3-yl)propanoate]
Cc1ccccc1-c1cccc([C@H](CC(=O)O)NC(=O)Nc2c(O)ccn(C)c2=O)c1 [1-598, sodium (S)-3-(3-(1-methyl-4-oxido-2-oxo-1,2-dihydropyridin-3-yl)ureido)-3-(2′-methylbiphenyl-3-yl)propanoate]
Cc1ccccc1-c1cccc([C@H](CC(=O)O)NC(=O)Nc2c(O)cc(C)n(C)c2=O)c1 [1-599, sodium (S)-3-(3-(1,6-dimethyl-4-oxido-2-oxo-1,2-dihydropyridin-3-yl)ureido)-3-(2′-methylbiphenyl-3-yl)propanoate]
Cc1cccc(C)c1-c1cc(F)cc([C@H](CC(=O)O)NC(=O)Nc2c(O)ccn(C)c2=O)c1 [1-600, sodium (S)-3-(5-fluoro-2′,6′-dimethylbiphenyl-3-yl)-3-(3-(1-methyl-4-oxido-2-oxo-1,2-dihydropyridin-3-yl)ureido)propanoate]
Cn1ccc(O)c(NC(=O)N[C@@H](CC(=O)O)c2ccc(-c3cccc(OC(F)(F)F)c3)s2)c1=O [1-601, sodium (S)-3-(3-(1-methyl-4-oxido-2-oxo-1,2-dihydropyridin-3-yl)ureido)-3-(5-(3-(trifluoromethoxy)phenyl)thiophen-2-yl)propanoate]
COc1ccc(-c2c(C)cccc2C)cc1[C@H](CC(=O)O)NC(=O)Nc1c(O)ccn(C)c1=O [1-602, sodium (S)-3-(4-methoxy-2′,6′-dimethylbiphenyl-3-yl)-3-(3-(1-methyl-4-oxido-2-oxo-1,2-dihydropyridin-3-yl)ureido)propanoate]
COc1cccc(-c2ccc(F)c([C@H](CC(=O)O)NC(=O)Nc3c(O)cc(C)n(C)c3=O)c2)c1 [1-603, sodium (S)-3-(3-(1,6-dimethyl-4-oxido-2-oxo-1,2-dihydropyridin-3-yl)ureido)-3-(4-fluoro-3′-methoxybiphenyl-3-yl)propanoate]
COc1cccc(-c2cc(F)cc([C@H](CC(=O)O)NC(=O)Nc3c(O)ccn(C)c3=O)c2)c1 [1-604, sodium (S)-3-(5-fluoro-3′-methoxybiphenyl-3-yl)-3-(3-(1-methyl-4-oxido-2-oxo-1,2-dihydropyridin-3-yl)ureido)propanoate]
COc1cccc(-c2cc(F)cc([C@H](CC(=O)O)NC(=O)Nc3c(O)cc(C)n(C)c3=O)c2)c1 [1-605, sodium (S)-3-(5-fluoro-3′-methoxybiphenyl-3-yl)-3-(3-(4-hydroxy-1,6-dimethyl-2-oxo-1,2-dihydropyridin-3-yl)ureido)propanoate]
Cc1cc(O)c(NC(=O)N[C@@H](CC(=O)O)c2cc(F)cc(-c3cccc(OC(F)(F)F)c3)c2)c(=O)n1C [1-606, sodium (S)-3-(3-(1,6-dimethyl-4-oxido-2-oxo-1,2-dihydropyridin-3-yl)ureido)-3-(5-fluoro-3′-trifluoromethoxybiphenyl-3-yl)propanoate]
Cn1ccc(O)c(NC(=O)N[C@@H](CC(=O)O)c2cc(F)cc(-c3cccc(OC(F)(F)F)c3)c2)c1=O [1-607, sodium (S)-3-(5-fluoro-3′-(trifluoromethoxy)biphenyl-3-yl)-3-(3-(1-methyl-4-oxido-2-oxo-1,2-dihydropyridin-3-yl)ureido)propanoate]
